Measurements as given in ChEMBL document CHEMBL1154763, “Antitrypanosomal activity of 1,2-dihydroquinolin-6-ols and their ester derivatives” (J Med Chem, 2010).
Active and inactive are the calls of the source. No cut-off for these calls is given here.

How the values were obtained:
[1] = tested on: Trypanosoma brucei rhodesiense; test: Antitrypanosomal activity against bloodstream Trypanosoma brucei rhodesiense STIB 900 after 70 hrs by alamar blue assay; type: functional, organism-based; conditions: STIB 900, 70 h
L6 = test: Cytotoxicity against rat L6 cells after 70 hrs by alamar blue assay; type: cell-based; conditions: L6, 70 h
[2] = Selectivity index, ratio of IC50 for rat L6 cells to IC50 for bloodstream Trypanosoma brucei rhodesiense STIB 900; type: toxicity, cell-based; conditions: read-out: Ratio IC50
Mus musculus = test: Toxicity in Trypanosoma brucei STIB795 infected in NMRI mouse African trypanosomiasis model assessed as overt signs of at 50 mg/kg, ip qd administered for 4 consecutive days from day 3 to 6 postinfection measured up to 30 days; conditions: in vivo, 720 h
[3] = tested on: Trypanosoma brucei brucei; test: Antitrypanosomal activity against Trypanosoma brucei brucei STIB 795 infected in NMRI mouse African trypanosomiasis model assessed as parasite free mouse survival at 50 mg/kg, ip qd administered for 4 consecutive days from day 3 to 6 postinfection measured up to 30 days
[4] = tested on: Trypanosoma brucei brucei; test: Induction of reactive oxygen species generation in Trypanosoma brucei brucei MITat1,2,variant 221 at 1 uM preincubated for 24 hrs by CM-H2DCFDA fluorescence assay
[5] = tested on: Trypanosoma brucei brucei; test: Induction of reactive oxygen species generation in Trypanosoma brucei brucei MITat1,2,variant 221 at 10 uM preincubated for 24 hrs by CM-H2DCFDA fluorescence assay
[6] = tested on: Trypanosoma brucei brucei; test: Induction of reactive oxygen species generation in Trypanosoma brucei brucei MITat1,2,variant 221 at 0.1 uM preincubated for 24 hrs by CM-H2DCFDA fluorescence assay
[7] = tested on: Trypanosoma brucei brucei; test: Induction of reactive oxygen species generation in Trypanosoma brucei brucei MITat1,2,variant 221 preincubated for 24 hrs by CM-H2DCFDA fluorescence assay
[8] = tested on: Trypanosoma brucei brucei; test: Antitrypanosomal activity against Trypanosoma brucei brucei STIB 795 infected in NMRI mouse African trypanosomiasis model assessed as parasite free mouse survival at 10 mg/kg, ip qd administered for 4 consecutive days from day 3 to 6 postinfection measured up to 30 days; conditions: STIB795

CC1=CC(C)(C)Nc2ccc(OCCc3ccccc3)cc21
IC50 [1]: 3.7 µM | IC50 (L6; read-out: IC50): 83 µM | selectivity ratio [2]: 22

CC1=CC(C)(C)N(Cc2ccc(C)cc2)c2ccc(O)cc21
IC50 [1]: 0.058 µM | IC50 (L6; read-out: IC50): 8.1 µM | selectivity ratio [2]: 140

COc1cccc(COc2ccc3c(c2)C(C)=CC(C)(C)N3)c1
IC50 [1]: 11 µM | IC50 (L6; read-out: IC50): 61 µM | selectivity ratio [2]: 5

CC(=O)Oc1ccc2c(c1)C(C)=CC(C)(C)N2Cc1cccc(Cl)c1
IC50 [1]: 0.039 µM | IC50 (L6; read-out: IC50): 29 µM | selectivity ratio [2]: 740

CC(=O)Oc1ccc2c(c1)C(C)=CC(C)(C)N2Cc1ccc(Cl)c(Cl)c1
IC50 [1]: 0.053 µM | IC50 (L6; read-out: IC50): 28 µM | selectivity ratio [2]: 530

CC1=CC(C)(C)Nc2ccc(O)cc21
IC50 [1]: 0.78 µM | IC50 (L6; read-out: IC50): 18 µM | selectivity ratio [2]: 23

Nc1nc(N)nc(Nc2ccc([As]3SCC(CO)S3)cc2)n1 (stereo not drawn) [MELARSOPROL]
IC50 [1]: 0.008 µM | IC50 (L6; read-out: IC50): 7.9 µM | selectivity ratio [2]: 1000

CC1=CC(C)(C)Nc2ccc(OCc3cccc(C(F)(F)F)c3)cc21
IC50 [1]: 8.8 µM | IC50 (L6; read-out: IC50): 45 µM | selectivity ratio [2]: 5

CC1(C)C=Cc2cc(O)ccc2N1Cc1ccccc1
IC50 [1]: 0.13 µM | IC50 (L6; read-out: IC50): 5.5 µM | selectivity ratio [2]: 42

COc1ccc(CN2c3ccc(O)cc3C(C)=CC2(C)C)cc1
IC50 [1]: 0.17 µM | IC50 (L6; read-out: IC50): 6.2 µM | selectivity ratio [2]: 37

CC1=CC(C)(C)N(Cc2ccccn2)c2ccc(O)cc21
IC50 [1]: 1.1 µM | IC50 (L6; read-out: IC50): 18 µM | selectivity ratio [2]: 17

CCCCCCCC(=O)Oc1ccc2c(c1)C(C)=CC(C)(C)N2Cc1ccccc1
IC50 [1]: 0.017 µM | IC50 (L6; read-out: IC50): 220 µM | selectivity ratio [2]: 13000

CC(=O)Oc1ccc2c(c1)C(C)=CC(C)(C)N2Cc1ccc(F)cc1
IC50 [1]: 0.041 µM | IC50 (L6; read-out: IC50): 29 µM | selectivity ratio [2]: 710 | Activity (Mus musculus): Non-toxic | Survival ([3]; route intraperitoneal): 8.75 days

COc1cc(CN2c3ccc(OC(C)=O)cc3C=CC2(C)C)cc(OC)c1
IC50 [1]: 0.2 µM | IC50 (L6; read-out: IC50): 10 µM | selectivity ratio [2]: 50

CC(=O)Oc1ccc2c(c1)N(Cc1ccccc1)C(C)(C)C=C2C
IC50 [1]: 4.4 µM | IC50 (L6; read-out: IC50): 71 µM | selectivity ratio [2]: 16 | Activity [4]: inactive | Activity [5]: inactive | Activity [6]: inactive

CC(=O)Oc1ccc2c(c1)C(C)=CC(C)(C)N2Cc1cccc(C)c1
IC50 [1]: 0.34 µM | IC50 (L6; read-out: IC50): 28 µM | selectivity ratio [2]: 82

CC1=CC(C)(C)N(Cc2ccccc2)c2ccc(OC(=O)C3CCCCC3)cc21
IC50 [1]: 0.028 µM | IC50 (L6; read-out: IC50): > 230 µM | selectivity ratio [2]: > 8200

CC1=CC(C)(C)Nc2ccc(OCc3ccc(C(F)(F)F)cc3)cc21
IC50 [1]: 4.5 µM | IC50 (L6; read-out: IC50): 48 µM | selectivity ratio [2]: 11

CC(=O)Oc1ccc2c(c1)C(C)=CC(C)(C)N2Cc1ccc(C#N)cc1
IC50 [1]: 0.26 µM | IC50 (L6; read-out: IC50): 29 µM | selectivity ratio [2]: 110

CC1=CC(C)(C)N(Cc2cccc(C(F)(F)F)c2)c2ccc(OCc3cccc(C(F)(F)F)c3)cc21
IC50 [1]: 3.6 µM | IC50 (L6; read-out: IC50): > 180 µM | selectivity ratio [2]: > 50

COc1cc(OC)cc(C(=O)Oc2ccc3c(c2)C(C)=CC(C)(C)N3Cc2ccccc2)c1
IC50 [1]: 0.023 µM | IC50 (L6; read-out: IC50): 24 µM | selectivity ratio [2]: 1000

COc1cc(CN2c3ccc(O)cc3C(C)=CC2(C)C)cc(OC)c1
IC50 [1]: 0.14 µM | IC50 (L6; read-out: IC50): 11 µM | selectivity ratio [2]: 83

CC1=CC(C)(C)N(Cc2ccc(C(F)(F)F)cc2)c2ccc(OCc3ccc(C(F)(F)F)cc3)cc21
IC50 [1]: 86 µM | IC50 (L6; read-out: IC50): > 180 µM | selectivity ratio [2]: > 2

CC1=CC(C)(C)Nc2ccc(OC(=O)c3ccc4c(c3)OCO4)cc21
IC50 [1]: 0.3 µM | IC50 (L6; read-out: IC50): 29 µM | selectivity ratio [2]: 99

COc1cc(OC)cc(C(=O)Oc2ccc3c(c2)C(C)=CC(C)(C)N3Cc2ccc(C)cc2)c1
IC50 [1]: 0.033 µM | IC50 (L6; read-out: IC50): > 200 µM | selectivity ratio [2]: > 6000

CC(=O)Oc1ccc2c(c1)C(C)=CC(C)(C)N2Cc1ccccc1
IC50 [1]: 0.014 µM | IC50 (L6; read-out: IC50): 24 µM | selectivity ratio [2]: 1700 | Activity [7]: Dose-dependent effect | Activity (Mus musculus): Non-toxic | Survival ([3]; route intraperitoneal): >14 days

CC1=CC(C)(C)N(Cc2ccccc2)c2ccccc21
IC50 [1]: 57 µM | IC50 (L6; read-out: IC50): 110 µM | selectivity ratio [2]: 2 | Activity [4]: inactive | Activity [5]: inactive | Activity [6]: inactive

N=C(N)c1ccc(/N=N/Nc2ccc(C(=N)N)cc2)cc1
Activity [8]: Active

CC1=CC(C)(C)N(Cc2ccccc2)c2ccc(OC(=O)c3ccccc3)cc21
IC50 [1]: 0.013 µM | IC50 (L6; read-out: IC50): > 240 µM | selectivity ratio [2]: > 18000

CC(=O)Oc1ccc2c(c1)C(C)=CC(C)(C)N2Cc1ccc(Cl)cc1
IC50 [1]: 0.18 µM | IC50 (L6; read-out: IC50): 22 µM | selectivity ratio [2]: 120

COc1ccc(CN2c3ccc(OC(C)=O)cc3C(C)=CC2(C)C)cc1
IC50 [1]: 0.048 µM | IC50 (L6; read-out: IC50): 15 µM | selectivity ratio [2]: 310

COc1cc(CN2c3ccc(OC(C)=O)cc3C(C)=CC2(C)C)cc(OC)c1
IC50 [1]: 0.1 µM | IC50 (L6; read-out: IC50): 25 µM | selectivity ratio [2]: 240

COc1cc([C@@H]2c3cc4c(cc3[C@H](O)[C@H]3COC(=O)[C@H]23)OCO4)cc(OC)c1OC [PODOFILOX]
IC50 (L6): 0.012 µM

CC(=O)Oc1ccc2c(c1)C(C)=CC(C)(C)N2Cc1cccc(C(F)(F)F)c1
IC50 [1]: 0.041 µM | IC50 (L6; read-out: IC50): 27 µM | selectivity ratio [2]: 660

CC1=CC(C)(C)N(Cc2ccccc2)c2ccc(OC(=O)Cc3ccccc3)cc21
IC50 [1]: 0.015 µM | IC50 (L6; read-out: IC50): 160 µM | selectivity ratio [2]: 11000

CC(=O)Oc1ccc2c(c1)C(C)=CC(C)(C)N2C
IC50 [1]: 1.4 µM | IC50 (L6; read-out: IC50): 41 µM | selectivity ratio [2]: 29

COc1cccc(CN2c3ccc(OC(C)=O)cc3C(C)=CC2(C)C)c1
IC50 [1]: 0.32 µM | IC50 (L6; read-out: IC50): 29 µM | selectivity ratio [2]: 91

COc1ccc(COc2ccc3c(c2)C(C)=CC(C)(C)N3)cc1
IC50 [1]: 5.2 µM | IC50 (L6; read-out: IC50): 77 µM | selectivity ratio [2]: 15

COc1cc(OC)cc(C(=O)Oc2ccc3c(c2)C(C)=CC(C)(C)N3Cc2ccc(Cl)cc2)c1
IC50 [1]: 0.048 µM | IC50 (L6; read-out: IC50): > 190 µM | selectivity ratio [2]: > 3900

CC(=O)Oc1ccc2c(c1)C(C)=CC(C)(C)N2Cc1ccc(C(C)(C)C)cc1
IC50 [1]: 0.67 µM | IC50 (L6; read-out: IC50): 9 µM | selectivity ratio [2]: 13

CC1=CC(C)(C)Nc2ccc(OC(=O)c3cccc(C(=O)Oc4ccc5c(c4)C(C)=CC(C)(C)N5)c3)cc21
IC50 [1]: < 0.008 µM | IC50 (L6; read-out: IC50): 63 µM | selectivity ratio [2]: > 7800

COc1cccc(COc2ccc3c(c2)C(C)=CC(C)(C)N3Cc2cccc(OC)c2)c1
IC50 [1]: 63 µM | IC50 (L6; read-out: IC50): > 210 µM | selectivity ratio [2]: > 3

COc1cc(OC)cc(C(=O)Oc2ccc3ncccc3c2)c1
IC50 [1]: 89 µM | IC50 (L6; read-out: IC50): 200 µM | selectivity ratio [2]: 2

CC1=CC(C)(C)N(Cc2ccccc2)c2ccc(OC(=O)C(C)(C)C)cc21
IC50 [1]: 0.028 µM | IC50 (L6; read-out: IC50): 170 µM | selectivity ratio [2]: 6000

CC1=CC(C)(C)N(Cc2ccncc2)c2ccc(O)cc21
IC50 [1]: 0.34 µM | IC50 (L6; read-out: IC50): 13 µM | selectivity ratio [2]: 39

CC(=O)Oc1ccc2c(c1)C(C)=CC(C)(C)N2Cc1ccc(C(F)(F)F)cc1
IC50 [1]: 0.36 µM | IC50 (L6; read-out: IC50): 14 µM | selectivity ratio [2]: 39

COc1ccccc1COc1ccc2c(c1)C(C)=CC(C)(C)N2
IC50 [1]: 5.3 µM | IC50 (L6; read-out: IC50): 48 µM | selectivity ratio [2]: 9

COc1cc(OC)cc(C(=O)Oc2ccc3c(c2)C(C)=CC(C)(C)N3)c1
IC50 [1]: 0.054 µM | IC50 (L6; read-out: IC50): 16 µM | selectivity ratio [2]: 300 | Survival [3]: inactive

CC1=CC(C)(C)N(Cc2ccc(Cl)cc2)c2ccc(O)cc21
IC50 [1]: 0.061 µM | IC50 (L6; read-out: IC50): 7.9 µM | selectivity ratio [2]: 130

COc1cc(COc2ccc3c(c2)C(C)=CC(C)(C)N3)cc(OC)c1
IC50 [1]: 13 µM | IC50 (L6; read-out: IC50): 68 µM | selectivity ratio [2]: 5

O=C(Oc1ccc2ncccc2c1)c1ccc2c(c1)OCO2
IC50 [1]: 80 µM | IC50 (L6; read-out: IC50): 40 µM | selectivity ratio [2]: 0.5

CC(=O)Oc1ccc2c(c1)C(C)=CC(C)(C)N2C(C)=O
IC50 [1]: 5.3 µM | IC50 (L6; read-out: IC50): 160 µM | selectivity ratio [2]: 29

CC1=CC(C)(C)N(Cc2ccccc2)c2ccc(O)cc21
IC50 [1]: 0.007 µM | IC50 (L6; read-out: IC50): 6.8 µM | selectivity ratio [2]: 970

CC(=O)Oc1ccc2c(c1)C(C)=CC(C)(C)N2Cc1ccc(C)cc1
IC50 [1]: 0.39 µM | IC50 (L6; read-out: IC50): 21 µM | selectivity ratio [2]: 54

CC(=O)Oc1ccc2c(c1)C(C)=CC(C)(C)N2Cc1cccc(C#N)c1
IC50 [1]: 0.18 µM | IC50 (L6; read-out: IC50): 31 µM | selectivity ratio [2]: 170 | Activity (Mus musculus): Non-toxic | Survival ([3]; route intraperitoneal): 9.25 days

CC1=CC(C)(C)Nc2ccc(OCc3ccccc3)cc21
IC50 [1]: 4.1 µM | IC50 (L6; read-out: IC50): 56 µM | selectivity ratio [2]: 14
